Measurements as given in patent publication US12667100B2, “Composition comprising benzylamine acaricide and use thereof” (SHANDONG KANGQIAO BIO-TECHNOLOGY CO., LTD, priority 2021, dated 2026).
Values joined by “and” are separate entries in the source; they are usually repeats but may differ in a detail not shown here. Equal entries are not always repeated. Where two headings read alike, the source gives them in different places.

Test system: Tetranychus cinnabarinus Boi, adult mite
Assay: whole plant or invertebrate
Assay type: in vivo
Experimental: Test subject: Tetranychus cinnabarinus Boi, adult mite, indoor rearing sensitive strain.
Test condition: 25° C. constant temperature incubator, 60% relative humidity, light L:D=14:10
Test solution formulation: according to the test needs, accurately weigh the test sample more than 50 mg by using an electronic analytical balance, mixed with acetone to the required concentration, according to calculation, the sample of acetone solution added to a volumetric flask, diluted by aqueous solution with 0.1 wt % Tween 80 to obtain the required concentration of the solution.
Test method: One true leaf was removed after cutting the seedlings of beans, and one true leaf was added to the hydroponic glass jar after leaving the leaf to access about 50-150 adult Tetranychus cinnabarinus Boi of the same size, and the mite base was counted the next day. The Airbrush method was used to treat the test material with medicinal spray, 1.5 mL of medicinal spray was sprayed for each treatment, and a blank control was set for three treatments.
After spraying and drying naturally, the treated test material was placed in a constant temperature observation room. 72 hours later, the number of live mites was investigated and the mortality rate was calculated. The Bliss method was used for evaluation, and the theoretical mortality rate could be calculated by the following formula: P=Pm+Pn(1−Pm)
Pm is the mortality rate (%) of the target at a concentration of m for the first active component (active component a); Pn is the mortality rate (%) of the target at a concentration of n for the second active component (active component b).

[1] = single agent 0.01 mg/L, adult mites, 72 h after spraying
[2] = single agent 0.2 mg/L, adult mites, 72 h after spraying
[3] = Tetranychus cinnabarinus, 72 h, read-out: 72 h mortality rate
[4] = single agent 0.04 mg/L, adult mites, 72 h after spraying
[5] = single agent 0.4 mg/L, adult mites, 72 h after spraying
[6] = single agent 1 mg/L, adult mites, 72 h after spraying
[7] = single agent 5 mg/L, adult mites, 72 h after spraying
[8] = Tetranychus cinnabarinus, 72 h, single agent 0.01 mg/L, adult mites, 72 h after spraying, read-out: 72 h mortality rate
[9] = Tetranychus cinnabarinus, 72 h, single agent 0.04 mg/L, adult mites, 72 h after spraying, read-out: 72 h mortality rate
[10] = Tetranychus cinnabarinus, 72 h, single agent 0.2 mg/L, adult mites, 72 h after spraying, read-out: 72 h mortality rate
[11] = Tetranychus cinnabarinus, 72 h, single agent 0.4 mg/L, adult mites, 72 h after spraying, read-out: 72 h mortality rate
[12] = Tetranychus cinnabarinus, 72 h, single agent 0.8 mg/L, adult mites, 72 h after spraying, read-out: 72 h mortality rate
[13] = single agent 0.8 mg/L, adult mites, 72 h after spraying

`CCn1nc(C)cc1/C(OC(=O)C(C)(C)C)=C(/C#N)c1ccc(C(C)(C)C)cc1` [cyetpyrafen] was tested, and the “72 h mortality rate” value [1] was 0%, the “72 h mortality rate” value (single agent 0.05 mg/L, adult mites, 72 h after spraying) was 2.8% and the “72 h mortality rate” value (single agent 0.1 mg/L, adult mites, 72 h after spraying) was 17.0%. For the same compound, the “72 h mortality rate” value [2] was 37.9% and the “72 h mortality rate” value (single agent 0.5 mg/L, adult mites, 72 h after spraying) was 75.5%.
In the case of `CCOc1cc(C(C)(C)C)ccc1C1COC(c2c(F)cccc2F)=N1` (stereo not drawn) [etoxazole], the mortality at 0.01 µg/mL [3] is reported as 0%, the mortality at 0.04 µg/mL [3] is reported as 0% and the mortality at 0.2 µg/mL [3] is reported as 9.3%. The mortality at 0.4 µg/mL [3] was 21.4%, the mortality at 1 µg/mL [3] was 26.6% and the mortality at 5 µg/mL [3] was 43.6%.
With `Clc1ccccc1-c1nnc(-c2ccccc2Cl)nn1` [clofentezine] the mortality at 0.04 µg/mL [3] was 0%, the mortality at 0.2 µg/mL [3] was 0% and the mortality at 1 µg/mL [3] was 9.1%. It also gave a mortality at 8 µg/mL [3] of 18.2% and a mortality at 40 µg/mL [3] of 41.3%.
For `Cc1cc(C)c(C2=C(OC(=O)CC(C)(C)C)C3(CCCC3)OC2=O)c(C)c1` [spiromesifen], the “72 h mortality rate” value [1] was 0%, the “72 h mortality rate” value [4] was 0% and the “72 h mortality rate” value [2] was 0%. For the same compound, the “72 h mortality rate” value [5] was 14.1%, the “72 h mortality rate” value [6] was 30.4% and the “72 h mortality rate” value [7] was 64.9%.
Compound `CC[C@H](C)[C@H]1O[C@]2(C=C[C@@H]1C)C[C@@H]1C[C@@H](C/C=C(\C)[C@@H](O[C@H]3C[C@H](OC)[C@@H](O[C@H]4C[C@H](OC)[C@@H](O)[C@H](C)O4)[C@H](C)O3)[C@@H](C)/C=C/C=C3\CO[C@@H]4[C@H](O)C(C)=C[C@@H](C(=O)O1)[C@]34O)O2` [avermectin] has a mortality at 0.0005 µg/mL [3] of 0%, a mortality at 0.0025 µg/mL [3] of 14.8% and a mortality at 0.01 µg/mL [3] of 37.3%. The mortality at 0.02 µg/mL [3] was 70%.
In the case of `C#CCOS(=O)OC1CCCCC1Oc1ccc(C(C)(C)C)cc1` (stereo not drawn) [propargite], the mortality at 0.1 µg/mL [3] is reported as 0%, the mortality at 0.4 µg/mL [3] is reported as 0% and the mortality at 4 µg/mL [3] is reported as 3.9%. It also gave a mortality at 25 µg/mL [3] of 34.1%.
`COC(=O)c1ccccc1CNc1cc(SCC(F)(F)F)c(Cl)cc1F` [Compound A9] showed a mortality at 0.01 µg/mL [8] of 0%, a mortality at 0.04 µg/mL [9] of 0% and a mortality at 0.2 µg/mL [10] of 19.8%. The mortality at 0.4 µg/mL [11] was 42.2%, the mortality at 0.8 µg/mL [12] was 62.3% and the “72 h mortality rate” value [2] was 18.5% and 27.5% and 22.1% and 22.4%. The “72 h mortality rate” value [5] was 41.9% and 36.0% and 40.8% and 34.5% and the “72 h mortality rate” value [13] was 64.1% and 67.1% and 64.6% and 65.8%.
In the case of `CCC(C)(C)C(=O)OC1=C(c2ccc(Cl)cc2Cl)C(=O)OC12CCCCC2` [spirodiclofen], the “72 h mortality rate” value [1] is reported as 0%, the “72 h mortality rate” value [4] is reported as 0% and the “72 h mortality rate” value [2] is reported as 0%. For the same compound, the “72 h mortality rate” value [5] was 9.4%, the “72 h mortality rate” value [6] was 24.2% and the “72 h mortality rate” value [7] was 56.9%.
In the case of `COC(=O)c1ccccc1CNc1cc(SCC(F)(F)F)c(C)cc1F` [Compound A1], the mortality at 0.01 µg/mL [8] is reported as 0%, the mortality at 0.04 µg/mL [9] is reported as 0% and the mortality at 0.2 µg/mL [10] is reported as 27.9%. The mortality at 0.4 µg/mL [11] was 40.1%, the mortality at 0.8 µg/mL [12] was 74.6% and the “72 h mortality rate” value [2] was 22.2% and 28.1% and 26.8% and 19.8%. For the same compound, the “72 h mortality rate” value [5] was 40.4% and 43.3% and 41.7% and 42.3% and the “72 h mortality rate” value [13] was 74.3% and 72.6% and 72.7% and 74.1%.
Compound `C[C@@H]1[C@@H](c2ccc(Cl)cc2)SC(=O)N1C(=O)NC1CCCCC1` [hexythiazox] has a mortality at 0.04 µg/mL [3] of 0%, a mortality at 0.2 µg/mL [3] of 12.8% and a mortality at 1 µg/mL [3] of 21.3%. For the same compound, the mortality at 8 µg/mL [3] was 36.3% and the mortality at 40 µg/mL [3] was 69.5%.
